Consider three compounds from US10189870B2, “Crystalline form of oxazolidinone antibiotics and preparation method, composition and use thereof” (Hangzhou Pushai Pharmaceutical Technology Co., Ltd., priority 2014, dated 2019).

SMILES strings stand for the structures. Converted amounts (≈) assume the structure as drawn. Like-named read-outs stand apart in the source and are kept apart here.

Data set [1] can be described thus: Isothermal adsorption curve (hygroscopicity). In kind it is physicochemical. Particulars: for hygroscopicity (in words): isothermal adsorption curve. The method, then:
The Isothermal Adsorption Curve data are collected by TA Instruments Q5000 TGA. The instrument control software is Thermal Advantage and the analysis software is Universal Analysis. Generally, take 1 to 10 mg of the sample and place it in a platinum pan, and record weight changes of the sample during the course of the relative humidity changing from 0% to 80% then to 0%. Depending on samples, different adsorption and desorption steps may be used.

Data set [2] in a line: Stability test under high temperature and bright light, HPLC purity. The class given is physicochemical. As to conditions: for Change in value of maximum individual impurity content: increase. The method, then: High Performance Liquid Chromatogram (HPLC) analysis data are collected from Agilent 1260 and the chemical workstation is B.04. The corresponding parameters are as follows: chromatographic column […] XDB-C18, 5 μm, 4.6×250 mm, H-005#, column temperature 25° C., flow rate 0.3 ml/min, mobile phase 13% acetonitrile and 87% water (0.0025M ammonium bicarbonate), wavelength 254 nm, sample size 10 μL and operation duration 20 min. Form I of TR-701FA prepared in preparation example 1 and Form II of TR-701FA of the present invention were compared in the stability test by being stored for 10 days under conditions of high temperature and bright light. The high temperature was 80° C. and the light was 6,000 lx. HPLC purities and maximum individual impurity contents of the compounds were tested before and after the storage, and the results were shown in Table 3.

Data set [3] is described as follows: Solubility in water, filtrate content measured by HPLC. In kind it is physicochemical. Particulars: for solubility at 10 h: water, 25 °C, thermodynamic from solid. The method, then: High Performance Liquid Chromatogram (HPLC) analysis data are collected from Agilent 1260 and the chemical workstation is B.04. The corresponding parameters are as follows: chromatographic column Eclipst XDB-C18, 5 μm, 4.6×250 mm, H-005#, column temperature 25° C., flow rate 0.3 ml/min, mobile phase 13% acetonitrile and 87% water (0.0025M ammonium bicarbonate), wavelength 254 nm, sample size 10 μL and operation duration 20 min.
In 100 mL of water was added 20.0 mg of Form I prepared in preparation example 1 or 20 mg of Form II prepared in example 1, and stirred for 10 hours at 25° C., filtered, the content of the filtrate was directly measured by HPLC.

For data set [4] the following is noted: aqueous solution or acid solution; cited from earlier work.
For data set [5] the following is noted: cited from earlier work.
Data set [6] is described as follows: Storage stability at 25° C. and 60% RH. In kind it is physicochemical. Particulars: stored for 6 months at 25° C. and 60% RH.
The mark [7] stands for this setting: 0 day vs 10 days at 80° C. and 6,000 lx.
Where [8] appears, read: high temperature (80° C.) and lighting (6,000 lx) for 10 days.

In general, solubility refers to how much of the substance goes into solution per volume. `Cn1nnc(-c2ccc(-c3ccc(N4C[C@H](COP(=O)(O)O)OC4=O)cc3F)cn2)n1` [Form I of TR-701FA, (R)-3-(4-(2-(2-methyltetrazol-5-yl)pyridine-5-yl)-3-fluorophenyl)-5-hydroxymethyl oxazolidin-2-onedihydrogenphosphate]: in data set [1], the “hygroscopicity (in words)” value is listed as “high hygroscopicity”. For the same compound, in data set [1] (relative humidity range of 20% to 80% RH), the “weight change on isothermal adsorption curve” value is recorded as “approximately 1.56%”. Further, in data set [2] (0 day), the HPLC purity is 98.7% and the “Maximum individual impurity content” value worked out at 1.3%. Also, the “Change in value of maximum individual impurity content” value in data set [2] (setting [7]) is given as 1.2%. Moreover, the “Change in value of HPLC purity” value in data set [2] (0 day vs 10 days at 80° C. and 6,000 lx, positive = decrease) is 2.1%. In data set [2] (setting [8]), the HPLC purity is given as 96.6% and the “Maximum individual impurity content” value is on record as 2.5%. The “solubility in water (in words)” value in data set [3] is “low solubility in water”. In addition, the solubility at 10 h in data set [3] (stirred 10 hours at 25° C. (room temperature), filtrate by HPLC, read-out: solubility in water) was determined as 0.118 mg/mL (≈ 262 µM).

In the case of `Cn1nnc(-c2ccc(-c3ccc(N4C[C@H](COP(=O)(O)O)OC4=O)cc3F)cn2)n1` [TR-701FA, (R)-3-(4-(2-(2-methyltetrazol-5-yl)pyridine-5-yl)-3-fluorophenyl)-5-hydroxymethyl oxazolidin-2-onedihydrogenphosphate], the “stability in solution (in words)” value in data set [4] was “stable in aqueous solution or acid solution”. For the same compound, in data set [5], the “solubility relative to tedizolid (in words)” value is recorded as “better solubility than tedizolid”.

As to `Cn1nnc(-c2ccc(-c3ccc(N4C[C@H](COP(=O)(O)O)OC4=O)cc3F)cn2)n1` [Form II of TR-701FA, (R)-3-(4-(2-(2-methyltetrazol-5-yl)pyridine-5-yl)-3-fluorophenyl)-5-hydroxymethyl oxazolidin-2-onedihydrogenphosphate], in data set [1], the “hygroscopicity (in words)” value was “lower hygroscopicity than the known Form I”. In addition, in data set [6], the “purity and crystalline form after storage” value is reported as “remain unchanged”. The figures for the HPLC purity in data set [2] (0 day) and in data set [2] (setting [8]) were 98.3% and 98.4%, respectively. For the same compound, the “Maximum individual impurity content” value was 1.6% in data set [2] (0 day) and 1.7% in data set [2] (setting [8]). Besides, the “Change in value of maximum individual impurity content” value in data set [2] (setting [7]) turned out to be 0.1%. The solubility at 10 h in data set [3] (at room temperature, read-out: water solubility) is 0.168 mg/mL (≈ 373 µM).
